Ten molecules from ChEMBL document CHEMBL1201862, “PubChem BioAssay data set” (2004) can be followed below.

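48-hour exposure; five concentrations; linearly interpolated endpoints. GI50 marks 50% less growth.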 Activity calls are given as the source filed them. Rule as the data show it: active = GI50 up to about 1.1 µM and inactive = higher.

Among the test systems are COLO 205; DU-145; HCT-116; HOP-62; HOP-92; HT-29; Hs-578T; MDA-MB-435; NCI-H460; OVCAR-4; OVCAR-8; RPMI-8226; SF-295; SK-MEL-28; SK-OV-3; SNB-75; SW-620; T47D; UACC-257; MOLT-4.
Common to all, as to assay: NCI-60 cell line screen, 48 h

For `O=C(O)Cc1cc(Cl)ccc1O`, the GI50 in the assay on COLO 205, in the assay on DU-145, in the assay on HCT-116, in the assay on HOP-62, in the assay on HOP-92 and in the assay on HT-29 was > 100 µM (inactive) each time. Also, the GI50 in the assay with Hs-578T, with MDA-MB-435, in the assay on NCI-H460, in the assay on OVCAR-4, with OVCAR-8 and in the assay with RPMI-8226 was > 100 µM (inactive) each time. The GI50 in the assay on SF-295, with SK-MEL-28, in the assay on SK-OV-3, in the assay on SNB-75, in the assay on SW-620 and in the assay on T47D was > 100 µM (inactive) in each case. Also, in the assay on UACC-257, the GI50 is > 100 µM (inactive).

Regarding `Cc1ccsc1/C=N/Nc1nc2ccccc2s1`, the GI50 in the assay on COLO 205 is 35.2 µM (inactive); with DU-145, 26.8 µM (inactive); in the assay with HCT-116 it was 11.2 µM (inactive); in the assay with HOP-62 it was 8.99 µM (inactive); in the assay on HOP-92, 13.4 µM (inactive); in the assay with HT-29, 34.6 µM (inactive). The GI50 in the assay on Hs-578T is 23.2 µM (inactive); with MDA-MB-435, 70.1 µM (inactive); with MOLT-4, 16.2 µM (inactive); in the assay on OVCAR-4 it was 19.7 µM (inactive); in the assay with OVCAR-8, 23 µM (inactive); in the assay with RPMI-8226 it was 19.4 µM (inactive). Also, the GI50 with SF-295 was 10.6 µM (inactive); in the assay with SK-MEL-28, 25.1 µM (inactive); with SK-OV-3, 12.5 µM (inactive); in the assay on SNB-75 it was 20.5 µM (inactive); in the assay on SW-620, 25 µM (inactive); with T47D it was 48.8 µM (inactive). In addition, the GI50 with UACC-257 was 20.4 µM (inactive).

Regarding `O=C(O)CN1CCNCCNCC1`, the GI50 in the assay with COLO 205, in the assay on DU-145, in the assay with HCT-116, in the assay on HOP-62, in the assay with HOP-92 and in the assay with HT-29 was > 100 µM (inactive) throughout. In addition, the GI50 with Hs-578T, in the assay on MDA-MB-435, in the assay with MOLT-4, with NCI-H460, in the assay with OVCAR-4 and with OVCAR-8 was > 100 µM (inactive) in each case. Besides, the GI50 in the assay with RPMI-8226 was > 100 µM (inactive); with SK-MEL-28, > 100 µM (inactive); in the assay with SK-OV-3, > 100 µM (inactive); in the assay with SNB-75, 17.5 µM (inactive); in the assay with SW-620, > 100 µM (inactive); with T47D, > 100 µM (inactive). Besides, the GI50 in the assay on UACC-257 is > 100 µM (inactive).

Regarding `O=C1O[C@H](COC(=O)c2ccccc2)[C@@H](OC(=O)c2ccccc2)C=C1OC(=O)c1ccccc1`, the GI50 in the assay on COLO 205 is 19.6 µM (inactive); in the assay with DU-145, 36.6 µM (inactive); in the assay with HCT-116, 17.3 µM (inactive); in the assay with HOP-62, 20 µM (inactive); in the assay on HOP-92, 21.8 µM (inactive); in the assay on Hs-578T, 33 µM (inactive). In addition, the GI50 in the assay on MDA-MB-435 is 25 µM (inactive); in the assay with MOLT-4, 23.1 µM (inactive); in the assay with NCI-H460, 16.2 µM (inactive); in the assay on OVCAR-4, 20.9 µM (inactive); in the assay with OVCAR-8, 21.8 µM (inactive); in the assay on RPMI-8226 it was 29.6 µM (inactive). Besides, the GI50 is 17.8 µM (inactive) with SF-295; > 100 µM (inactive) in the assay with SK-OV-3; 25.8 µM (inactive) with SNB-75; 19 µM (inactive) in the assay on SW-620; 23.4 µM (inactive) in the assay on T47D; 25.7 µM (inactive) in the assay on UACC-257.

With `Cc1cccc2c(N)c3cccc(C(=O)NCC[N+](C)(C)Cc4ccc(S(C)(=O)=O)cc4)c3nc12`, the GI50 is 47.1 µM (inactive) in the assay on COLO 205; 50 µM (inactive) in the assay on DU-145; 36.5 µM (inactive) with HCT-116; 27.7 µM (inactive) in the assay with HOP-62; 70 µM (inactive) in the assay with HOP-92; 36.6 µM (inactive) with HT-29. For the same molecule, the GI50 in the assay with Hs-578T was 19.9 µM (inactive); with MDA-MB-435, > 100 µM (inactive); with MOLT-4, 2.02 µM (inactive); in the assay on NCI-H460, 4.3 µM (inactive); in the assay on OVCAR-4, 41.4 µM (inactive); in the assay on OVCAR-8, 79.6 µM (inactive). Besides, the GI50 in the assay with RPMI-8226 was 5.61 µM (inactive); in the assay with SF-295, 89.1 µM (inactive); with SK-MEL-28, > 100 µM (inactive); with SK-OV-3, 33.6 µM (inactive); in the assay on SNB-75, 10.8 µM (inactive); in the assay on SW-620, 56.4 µM (inactive). The GI50 in the assay on T47D is 59.7 µM (inactive); with UACC-257, > 100 µM (inactive).

As for `O=C1NC(N2CCOCC2)=N/C1=C\c1ccco1`, the GI50 in the assay on COLO 205, with DU-145, in the assay on HCT-116, with HOP-62, in the assay with HOP-92 and in the assay with HT-29 was > 100 µM (inactive) in each case. In addition, the GI50 in the assay with Hs-578T, with MDA-MB-435, in the assay on MOLT-4, in the assay on OVCAR-4, in the assay with OVCAR-8 and in the assay with RPMI-8226 was > 100 µM (inactive) throughout. Moreover, the GI50 in the assay on SF-295, in the assay on SK-MEL-28, in the assay on SK-OV-3, in the assay with SNB-75, with SW-620 and in the assay with T47D was > 100 µM (inactive) throughout. The GI50 with UACC-257 is > 100 µM (inactive).

Take `O=C(Nc1cccc2ccccc12)c1cc2ccccc2oc1=O`: the GI50 is > 100 µM (inactive) with COLO 205; > 100 µM (inactive) in the assay with DU-145; 36.8 µM (inactive) in the assay with HCT-116; 14.5 µM (inactive) in the assay on HOP-62; > 100 µM (inactive) with HOP-92; 28.1 µM (inactive) in the assay with HT-29. For the same molecule, the GI50 in the assay with Hs-578T was 32.8 µM (inactive); in the assay with MDA-MB-435, > 100 µM (inactive); with MOLT-4, > 100 µM (inactive); in the assay on NCI-H460, > 100 µM (inactive); in the assay with OVCAR-4, 78 µM (inactive); in the assay on OVCAR-8 it was 39.4 µM (inactive). Further, the GI50 with RPMI-8226 is > 100 µM (inactive); with SK-MEL-28, > 100 µM (inactive); in the assay on SK-OV-3, 30.2 µM (inactive); with SNB-75 it was 30.6 µM (inactive); with SW-620, > 100 µM (inactive); in the assay with T47D it was > 100 µM (inactive). The GI50 with UACC-257 is > 100 µM (inactive).

On to `CC1C(C#N)(C#N)C(C#N)=C(N)C1(Cl)[N+](=O)[O-]` (stereo not given), for which the GI50 in the assay on COLO 205 is 4.9 µM (inactive); in the assay with DU-145 it was 16.7 µM (inactive); with HCT-116, 7.19 µM (inactive); in the assay on HOP-62, 3.08 µM (inactive); in the assay on HOP-92 it was 2.08 µM (inactive); with HT-29, 9.04 µM (inactive). Moreover, the GI50 was 16.1 µM (inactive) in the assay with Hs-578T; 16.7 µM (inactive) in the assay with MDA-MB-435; 1.72 µM (inactive) in the assay with MOLT-4; 12.8 µM (inactive) in the assay with OVCAR-4; 14.9 µM (inactive) with OVCAR-8; 11.2 µM (inactive) with RPMI-8226. In addition, the GI50 with SF-295 was 18.8 µM (inactive); in the assay on SK-OV-3 it was 17 µM (inactive); in the assay on SNB-75, 11.7 µM (inactive); with SW-620, 2.17 µM (inactive); in the assay with T47D, 15.7 µM (inactive); with UACC-257 it was 12 µM (inactive).

For the molecule `CC1C(C#N)(C#N)C(C#N)=C(N)C1(C)[N+](=O)[O-]` (stereo not given), the GI50 is 44.6 µM (inactive) with COLO 205; > 100 µM (inactive) with DU-145; 58.3 µM (inactive) in the assay with HCT-116; > 100 µM (inactive) in the assay with HOP-62; 2.92 µM (inactive) with HOP-92; 26.2 µM (inactive) in the assay with HT-29. Besides, the GI50 with Hs-578T is 64.9 µM (inactive); in the assay on MDA-MB-435, 45.7 µM (inactive); in the assay on MOLT-4, 25.4 µM (inactive); with NCI-H460, 30.6 µM (inactive); in the assay on OVCAR-4, 47.4 µM (inactive); with OVCAR-8, 65.8 µM (inactive). The GI50 was 28.7 µM (inactive) in the assay with RPMI-8226; > 100 µM (inactive) in the assay with SF-295; > 100 µM (inactive) with SK-OV-3; 89.5 µM (inactive) in the assay on SNB-75; 51.1 µM (inactive) in the assay on SW-620; > 10 µM (inactive) in the assay with T47D. In addition, the GI50 in the assay on UACC-257 is 79.8 µM (inactive).

Consider `CC(=O)O[C@H]1C(=O)[C@@]2(C)[C@H]([C@H](OC(=O)c3ccccc3)[C@]3(O)C[C@H](OC(=O)[C@H](O)[C@@H](NC(=O)OC(C)(C)C)c4ccco4)C(C)=C1C3(C)C)[C@]1(OC(C)=O)CO[C@@H]1C[C@@H]2O`, for which the GI50 was < 0.005 µM (active) with COLO 205; < 0.005 µM (active) in the assay with DU-145; < 0.005 µM (active) in the assay with HCT-116; 0.00804 µM (active) with HOP-62; 7.23 µM (inactive) in the assay on HOP-92; < 0.005 µM (active) in the assay on HT-29. The GI50 with Hs-578T was < 0.005 µM (active); in the assay with MDA-MB-435, < 0.005 µM (active); in the assay with MOLT-4 it was 0.00667 µM (active); with NCI-H460 it was < 0.005 µM (active); with OVCAR-4, 4.18 µM (inactive); in the assay with OVCAR-8 it was 0.00615 µM (active). For the same molecule, the GI50 in the assay with RPMI-8226 was < 0.005 µM (active); in the assay on SF-295, 0.00687 µM (active); in the assay on SK-MEL-28, 0.205 µM (active); in the assay with SK-OV-3, < 0.005 µM (active); in the assay with SNB-75, < 0.005 µM (active); in the assay with SW-620 it was < 0.005 µM (active). Also, the GI50 in the assay with T47D was 0.264 µM (active); in the assay on UACC-257 it was 11.1 µM (inactive).
